Assay results taken from paper PMC6053448, “Small molecule activator of Nm23/NDPK as an inhibitor of metastasis” (Scientific Reports, 2018).

Tests used:
[1] = biological target: T1, recombinant human Nm23-H1 (NDPK-A) (Homo sapiens, UniProt P15531); assay: NDPK assay, activation; assay type: biochemical; conditions: number only in supplement
T1 construct: gene NME1; pET-3c, E. coli BL21(DE3), no tag mentioned; ATP-sepharose purification

[2] = biological target: T1, recombinant human Nm23-H1 (NDPK-A); assay: NDPK assay, double reciprocal plot; assay type: biochemical; conditions: 5 µM ATP, without NMac1

T1 sequence (P15531 whole entry): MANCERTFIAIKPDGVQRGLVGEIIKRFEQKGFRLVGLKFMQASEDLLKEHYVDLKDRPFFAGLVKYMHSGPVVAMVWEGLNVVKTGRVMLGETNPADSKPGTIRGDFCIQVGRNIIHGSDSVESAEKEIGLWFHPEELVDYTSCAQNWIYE

| Compound | % activation [1] | Km [2] |
| --- | --- | --- |
| COc1ccc(/C=C/[C@H]2CCC=C[C@@H]2c2ccc(OC)c(OC)c2)cc1OC [NMac3, 3S-(3,4-dimethoxyphenyl)-4R-[(E)-3,4-dimethoxystyryl]cyclohex-1-ene] | The chirality of the molecule did not affect the activation of Nm23-H1 |  |
| O=c1ccn([C@@H]2O[C@H](COP(=O)(O)OP(=O)(O)O)[C@@H](O)[C@H]2O)c(=O)[nH]1 [UDP] |  | NMac1 decreased the Km value of Nm23-H1 for substrate UDP without affecting Vmax |
